{"source": "patent US20230320970A1", "about": "“Skin Care Compositions” (Colgate-Palmolive Company, priority 2022, published 2023)", "key": {"[1]": {"conditions": "cited from earlier work"}, "[2]": {"test_system": "human derived keratinocytes", "test": "ROS production in H2O2-treated keratinocytes (alpha-tocopherol, EGT, niacinamide), ROS Detection Assay Kit", "type": "cell-based", "conditions": "alpha-tocopherol (0.001%) [sic], EGT 0.01%, niacinamide 0.01%; for % Decrease in ROS generated in keratinocyte: relative to 0.3 wt. % H2O2 treatment; for Fold Change, decrease in ROS generated in keratinocyte by antioxidant treatment: vs. 0.1% DMSO + 0.3% H2O2", "experimental": "Hydrogen peroxide treated cells were then treated with: alpha-tocopherol, ergothioneine and niacinamide, respectively and in combination. […] [table] […] [table]"}, "[3]": {"test_system": "human derived keratinocytes", "test": "ROS production in H2O2-treated keratinocytes (alpha-tocopherol, EGT, sodium PCA), ROS Detection Assay Kit", "type": "cell-based", "conditions": "alpha-tocopherol 0.001%, EGT 0.01%, Na PCA 0.01%; for % Decrease in ROS generated in keratinocyte: relative to 0.3 wt. % H2O2 treatment; for Fold Change, decrease in ROS generated in keratinocyte by antioxidant treatment: vs. 0.1 wt. % DMSO + 0.3 wt. % H2O2", "description": "Sample preparation: Human derived keratinocytes, plated on 24-well plates.\nCellular ROS/Superoxide Detection Assay Kit (Abcam—ab139476)"}}}
{"smiles": "O=C1O[C@H]([C@@H](O)CO)C(O)=C1O[C@H]1O[C@H](CO)[C@@H](O)[C@H](O)[C@H]1O", "note": "[ascorbyl glucoside]", "values": [{"measurement": "Log P", "setting": "[1]", "result": "−2.5"}]}
{"smiles": "Cc1c(C)c2c(c(C)c1O)CC[C@@](C)(CCC[C@H](C)CCC[C@H](C)CCCC(C)C)O2", "note": "[Alpha-tocopherol, alpha-tocopherol]", "values": [{"measurement": "% Decrease in ROS generated in keratinocyte", "setting": "[2]", "result": 20.79, "unit": "%"}, {"measurement": "Fold Change, decrease in ROS generated in keratinocyte by antioxidant treatment", "setting": "[2]", "result": "0.4-fold decrease"}, {"measurement": "% Decrease in ROS generated in keratinocyte", "setting": "[3]", "result": 70.72, "unit": "%"}, {"measurement": "% Decrease in ROS generated in keratinocyte", "setting": "[3]; listed as α-tocopherol", "result": 70.72, "unit": "%"}, {"measurement": "Fold Change, decrease in ROS generated in keratinocyte by antioxidant treatment", "setting": "[3]", "result": "4.21-fold decrease"}]}
{"smiles": "O=C1CCC(C(=O)[O-])N1.[Na+]", "note": "(stereo not drawn) [Na PCA, Sodium PCA]", "values": [{"measurement": "% Decrease in ROS generated in keratinocyte", "setting": "[2]", "result": 25.75, "unit": "%"}, {"measurement": "% Decrease in ROS generated in keratinocyte", "setting": "[3]", "result": 37.88, "unit": "%"}, {"measurement": "% Decrease in ROS generated in keratinocyte", "setting": "[3]; listed as Sodium PCA", "result": 37.9, "unit": "%"}, {"measurement": "Fold Change, decrease in ROS generated in keratinocyte by antioxidant treatment", "setting": "[3]", "result": "2.25-fold decrease"}]}
{"smiles": "C[N+](C)(C)[C@@H](Cc1c[nH]c(=S)[nH]1)C(=O)[O-]", "note": "[EGT, Ergothioneine]", "values": [{"measurement": "% Decrease in ROS generated in keratinocyte", "setting": "[2]", "result": 15.91, "unit": "%"}, {"measurement": "Fold Change, decrease in ROS generated in keratinocyte by antioxidant treatment", "setting": "[2]", "result": "0.31-fold decrease"}, {"measurement": "% Decrease in ROS generated in keratinocyte", "setting": "[3]", "result": 74.5, "unit": "%"}, {"measurement": "Fold Change, decrease in ROS generated in keratinocyte by antioxidant treatment", "setting": "[3]", "result": "4.43-fold decrease"}]}
{"smiles": "NC(=O)c1cccnc1", "note": "[Niacinamide]", "values": [{"measurement": "Fold Change, decrease in ROS generated in keratinocyte by antioxidant treatment", "setting": "[2]", "result": "0.24-fold decrease"}]}
